In article PMC10539350 (Scientific Reports, 2023):
≈ marks a conversion by molar mass, not a printed value. Like-named read-outs stand apart in the source and are kept apart here.

Tests used:
[1] = tested on: M. tuberculosis SIRE Ciprofloxacin resistant 22/22; format: cell-based, Mycobacterium tuberculosis; design: unit not given beside the values
[2] = tested on: M. tuberculosis SIRE Ciprofloxacin resistant 22/22; test: tuberculostatic activity, broth microdilution MIC (Alamar blue); format: cell-based, Mycobacterium tuberculosis
[3] = Mycobacterium tuberculosis; read-out: Minimal inhibitory concentration
[4] = Mycobacterium tuberculosis, read-out: Minimal inhibitory concentration

O=C(O)c1cn(C2CC2)c2cc(N3CCNCC3)c(F)cc2c1=O [Ciprofloxacin, reference compound]
MIC for reference drug in the presence of derivative 6 [1]: 8

CC1CCC(C(C)C)C(OC(=O)CCCCCOC(=O)c2cn(C3CC3)c3cc(N4CCN(CCCCCC(=O)OC5CC(C)CCC5C(C)C)CC4)c(F)cc3c2=O)C1 (stereo not drawn) [Compound 8]
MIC [2, 3]: 256 mg/L (≈ 306 µM)

[H]/N=C(/N)N[C@H]1[C@H](O)[C@@H](O)[C@H](O[C@@H]2O[C@@H](C)[C@](O)(C=O)[C@H]2O[C@@H]2O[C@@H](CO)[C@H](O)[C@@H](O)[C@@H]2NC)[C@@H](N/C(N)=N\[H])[C@@H]1O [Streptomycin, reference compound]
MIC [2, 3]: 32 mg/L (≈ 55 µM)

Cc1ccc(C(C)C)c(OC(=O)CCCOC(=O)c2cn(C3CC3)c3cc(N4CCN(CCCC(=O)Oc5cc(C)ccc5C(C)C)CC4)c(F)cc3c2=O)c1 [Compound 15]
MIC [2, 3]: 256 mg/L (≈ 333 µM)

CC1CCC(C(C)C)C(OCC(=O)N2CCN(c3cc4c(cc3F)c(=O)c(C(=O)O)cn4C3CC3)CC2)C1 (stereo not drawn) [Compound 1]
MIC [2, 3]: 32 mg/L (≈ 60.6 µM)

CC[C@@H](CO)NCCN[C@@H](CC)CO [Ethambutol, reference compound]
MIC [2, 3]: 4 mg/L (≈ 19.6 µM)

CC1CCC(C(C)C)C(OC(=O)CCN2CCN(c3cc4c(cc3F)c(=O)c(C(=O)O)cn4C3CC3)CC2)C1 (stereo not drawn) [Compound 3]
MIC [2, 3]: 16 mg/L (≈ 29.5 µM)

CC1CCC(C(C)C)C(OC(=O)CCCCN2CCN(c3cc4c(cc3F)c(=O)c(C(=O)O)cn4C3CC3)CC2)C1 (stereo not drawn) [Compound 5]
MIC [2, 3]: 16 mg/L (≈ 28.1 µM)

Cc1ccc(C(C)C)c(OC(=O)CCCCN2CCN(c3cc4c(cc3F)c(=O)c(C(=O)O)cn4C3CC3)CC2)c1 [Compound 13]
MIC [2, 3]: 32 mg/L (≈ 56.8 µM)

Cc1ccc(C(C)C)c(OC(=O)CN2CCN(c3cc4c(cc3F)c(=O)c(C(=O)O)cn4C3CC3)CC2)c1 [Compound 10]
MIC [2, 3]: 128 mg/L (≈ 245 µM)

CC(=O)NC[C@H]1CN(c2ccc(N3CCOCC3)c(F)c2)C(=O)O1 [Linezolid, reference compound]
MIC [2, 4]: 8 mg/L (≈ 23.7 µM)
MIC for reference drug in the presence of derivative 6 [1]: 4

CO[C@H]1/C=C/O[C@@]2(C)Oc3c(C)c(O)c4c(O)c(c(/C=N/N5CCN(C)CC5)c(O)c4c3C2=O)NC(=O)/C(C)=C\C=C\[C@H](C)[C@H](O)[C@@H](C)[C@@H](O)[C@@H](C)[C@H](OC(C)=O)[C@@H]1C [Rifampicin, reference compound]
activity in words [2]: no activity
MIC [2, 4]: 256 mg/L (≈ 311 µM)

Cc1ccc(C(C)C)c(OC(=O)CCCCCN2CCN(c3cc4c(cc3F)c(=O)c(C(=O)O)cn4C3CC3)CC2)c1 [Compound 14]
MIC [2, 3]: 16 mg/L (≈ 27.7 µM)

Cc1ccc(C(C)C)c(OCC(=O)N2CCN(c3cc4c(cc3F)c(=O)c(C(=O)O)cn4C3CC3)CC2)c1 [Compound 9]
MIC [2, 3]: 128 mg/L (≈ 245 µM)

Cc1ccc(C(C)C)c(OC(=O)CCCCCOC(=O)c2cn(C3CC3)c3cc(N4CCN(CCCCCC(=O)Oc5cc(C)ccc5C(C)C)CC4)c(F)cc3c2=O)c1 [Compound 16]
MIC [2, 3]: 256 mg/L (≈ 311 µM)

CC1CCC(C(C)C)C(OC(=O)CCCCOC(=O)c2cn(C3CC3)c3cc(N4CCN(CCCCC(=O)OC5CC(C)CCC5C(C)C)CC4)c(F)cc3c2=O)C1 (stereo not drawn) [Compound 7]
MIC [2, 3]: 256 mg/L (≈ 317 µM)

CC(C)[C@@H]1CC[C@@H](C)C[C@H]1OC(=O)CCCCCN1CCN(c2cc3c(cc2F)c(=O)c(C(=O)O)cn3C2CC2)CC1 [Compound 6, 1‐cyclopropyl‐6‐fluoro‐7‐{4‐[6‐((1R,2S,5R)‐2‐isopropyl‐5‐methylcyclohexyloxy)‐6‐oxohexyl]piperazin‐1‐yl}‐4‐oxo‐1,4‐dihydroquinoline‐3‐carboxylic acid]
MIC [2, 3]: 8 mg/L (≈ 13.7 µM)

Cc1ccc(C(C)C)c(OC(=O)CCN2CCN(c3cc4c(cc3F)c(=O)c(C(=O)O)cn4C3CC3)CC2)c1 [Compound 11]
MIC [2, 3]: 64 mg/L (≈ 119 µM)

CC1CCC(C(C)C)C(OC(=O)CN2CCN(c3cc4c(cc3F)c(=O)c(C(=O)O)cn4C3CC3)CC2)C1 (stereo not drawn) [Compound 2]
MIC [2, 3]: 16 mg/L (≈ 30.3 µM)

Cc1ccc(C(C)C)c(OC(=O)CCCN2CCN(c3cc4c(cc3F)c(=O)c(C(=O)O)cn4C3CC3)CC2)c1 [Compound 12]
MIC [2, 3]: 32 mg/L (≈ 58.2 µM)

CC1CCC(C(C)C)C(OC(=O)CCCN2CCN(c3cc4c(cc3F)c(=O)c(C(=O)O)cn4C3CC3)CC2)C1 (stereo not drawn) [Compound 4]
MIC [2, 3]: 16 mg/L (≈ 28.8 µM)

NNC(=O)c1ccncc1 [Isoniazid, reference compound]
MIC [2, 3]: 32 mg/L (≈ 233 µM)
